This passage reports TGI and GI50 results from PubChem BioAssay (NCI).

Some test systems named below: HOP-18 NSCLC; SNB-78 CNS; LXFL 529 NSCLC; DMS 273 small cell lung; XF 498 CNS; RXF-631 renal; P388 leukemia; SN12K1 renal; P388/ADR leukemia.
What all share (assay): NCI tumour cell line growth inhibition, 48 h

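Method: 48-hour compound exposure of cells in 96-well plates, five concentrations, linear interpolation of endpoints. Here, GI50 denotes the concentration required for 50% inhibition of growth. Definition used: TGI = concentration required for complete inhibition of growth.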 A value given as a limit tells only on which side of the number the result lay.

`O=C(NC12CC3CC(CC(C3)C1)C2)C(=O)c1c[nH]c2ccc(Br)cc12`: the TGI in the assay on HOP-18 NSCLC was 44.1 µM; with SNB-78 CNS, more than 100 µM; in the assay with LXFL 529 NSCLC, 37.3 µM; with DMS 273 small cell lung it was 17.6 µM.
Turning to `COc1cc(N)c2[nH]c3c(C)ccc(C)c3c2c1`, the TGI in the assay on XF 498 CNS, in the assay on SNB-78 CNS and in the assay on DMS 273 small cell lung was more than 100 µM each time.
As for `N#CNC(=NCc1ccccc1)NCCc1c[nH]c2ccccc12`, the TGI in the assay on XF 498 CNS, in the assay with SNB-78 CNS, in the assay on LXFL 529 NSCLC and with DMS 273 small cell lung was more than 100 µM throughout.
`Cc1c(OCCCOc2ccc3c(=O)cc(-c4ccccc4)oc3c2C)ccc2c(=O)cc(-c3ccccc3)oc12`: the TGI in the assay on XF 498 CNS, in the assay on HOP-18 NSCLC, with SNB-78 CNS, in the assay with LXFL 529 NSCLC and with DMS 273 small cell lung was more than 100 µM in each case.
As for `NC(=O)COc1c(Br)cc(Br)cc1Br`, the TGI with XF 498 CNS, in the assay with RXF-631 renal and with DMS 273 small cell lung was more than 100 µM in each case.
Regarding `CC(=O)Oc1c2c(c(OC(C)=O)c3c1n(C(C)=O)c1ccccc1n3C(C)=O)n(C(C)=O)c1ccccc1n2C(C)=O`, the TGI in the assay on LXFL 529 NSCLC was determined as 16.5 µM; with DMS 273 small cell lung it was 10.6 µM.
In the case of `COC1=CC(=O)C2C(C1=O)[C@@H]1c3ccccc3OC(C)(C)[C@H]21` (some centres not stated), the TGI in the assay with XF 498 CNS was 32.1 µM; in the assay with SNB-78 CNS, 41.5 µM; with LXFL 529 NSCLC, 32.8 µM; with DMS 273 small cell lung it was 40.6 µM.
For `N=S(=O)(c1ccccc1)c1ccccc1`, the TGI in the assay with HOP-18 NSCLC, in the assay on SNB-78 CNS and in the assay with LXFL 529 NSCLC was more than 100 µM throughout.
As for `Cc1cc(Br)cc(C)c1NC(=O)C(=O)C(C(=O)c1ccncc1)C1OC(=O)c2ccccc21` (configuration not stated), the TGI in the assay with XF 498 CNS, in the assay on HOP-18 NSCLC, with SNB-78 CNS, with LXFL 529 NSCLC, in the assay on RXF-631 renal and in the assay with DMS 273 small cell lung was more than 100 µM in each case.
Regarding `Nc1ccc2nc(Nc3ccc(Cl)c(Cl)c3)cnc2c1`, the figures for the TGI in the assay on SNB-78 CNS and with DMS 273 small cell lung were more than 100 µM and 34.1 µM, respectively.
Take `CN(C)C(=S)/N=c1\ssc(=S)n1Cc1cccs1`: the TGI in the assay on HOP-18 NSCLC, in the assay on SNB-78 CNS and in the assay with LXFL 529 NSCLC was more than 100 µM each time.
Turning to `Nc1ncnc2c1sc(=S)n2-c1ccccc1`, the TGI with XF 498 CNS, with HOP-18 NSCLC, in the assay on SNB-78 CNS, with LXFL 529 NSCLC and in the assay on DMS 273 small cell lung was more than 100 µM in each case.
For the molecule `C[N+](C)=c1ccc2nc3c(ccc4ccccc43)oc-2c1`, the TGI in the assay with XF 498 CNS was 27.4 µM; with HOP-18 NSCLC it was 23.6 µM; in the assay on SNB-78 CNS it was 20.8 µM; in the assay on LXFL 529 NSCLC, 19.4 µM; in the assay on RXF-631 renal, 20.8 µM; in the assay with DMS 273 small cell lung, 39.2 µM.
Take `CCOP(=O)(OCC)/C(C#N)=C\c1ccsc1`: the TGI in the assay on XF 498 CNS, in the assay on HOP-18 NSCLC, in the assay on SNB-78 CNS, in the assay on LXFL 529 NSCLC and in the assay on DMS 273 small cell lung was more than 100 µM throughout.
As to `COc1cccc2c1C(=O)c1c(O)c3c(c(O)c1C2=O)C[C@@](O)(C(=O)CN1CCOCC1)C[C@@H]3OC1CC(N)C(O)C(C)O1` (some centres not stated), the TGI with P388 leukemia stood at 2.29 µM; with XF 498 CNS, 8.33 µM; in the assay on HOP-18 NSCLC, 22 µM; with SN12K1 renal it was 30.1 µM; with DMS 273 small cell lung, 20.5 µM; in the assay with P388/ADR leukemia it was 71.7 µM. Further, the GI50 in the assay with HOP-18 NSCLC is 1.43 µM.
As to `C=C1C2C[C@@H]3OC4CC5O[C@]6(CC5OC4C(C)C3OC(=O)CC3CC[C@@H]4OC5C7OC8C[C@](CCC9CC(=C)[C@H](CCC(C[C@H]1C)O2)O9)(OC7C4O3)O[C@@H]85)C[C@@H]1O[C@@]2(CC(C)[C@@H]3OC(CC(=O)CCO)C(O)C[C@@H]3O2)CC(C)[C@@H]1O6` (some centres not stated), the TGI is 1.98 µM in the assay with SNB-78 CNS, 1.19 µM in the assay on LXFL 529 NSCLC and less than 0.001 µM in the assay with DMS 273 small cell lung.
Take `COc1ccc(C2S/C(=C\c3cccc(OC)c3)C(=O)N2NC(=O)Cc2ccccc2)cc1` (configuration not stated): the TGI with HOP-18 NSCLC, in the assay on LXFL 529 NSCLC and with DMS 273 small cell lung was more than 100 µM throughout.
Turning to `Brc1c2nc3ccccc3nc2n2ccc3ccccc3c12`, the TGI with XF 498 CNS, in the assay on SNB-78 CNS, in the assay with LXFL 529 NSCLC and in the assay with DMS 273 small cell lung was more than 100 µM each time.
